Data set [1] can be described thus: Kinetic aqueous solubility of the compound in pH 6.8. Conditions: read-out: Kinetic_solubility. It is filed as physicochemical.
Data set [2] in a line: Protein binding in human plasma assessed as unbound fraction at 2 uM by rapid equilibrium dialysis method. It counts as ADME, cell-free. On the technique in general: In equilibrium dialysis free small molecules cross a membrane that holds back macromolecules.
Data set [3] can be described thus: Kinetic solubility of the compound at pH 1.5 by shake flask method. It counts as physicochemical. The conditions noted are these: buffer, read-out: Kinetic_solubility.
Data set [4] can be described thus: Lipophilicity, logD of the compound at pH 7.6 by shake flask assay. It is filed as physicochemical. Conditions: buffer.
Data set [5] can be described thus: Protein binding in rat plasma assessed as unbound fraction at 2 uM by rapid equilibrium dialysis method. It counts as ADME, cell-free.
Another data set concerns the target Cytochrome P450 3A4 (Homo sapiens, UniProt P08684). The data set is described as follows: Inhibition of CYP3A4 (unknown origin). It counts as ADME.
A further data set addresses Cytochrome P450 2C9 (Homo sapiens, UniProt P11712). Briefly: Inhibition of CYP2C9 (unknown origin). It counts as ADME.
Data set [6] addresses T1, Tyrosine-protein kinase BTK (Homo sapiens, UniProt Q06187). Briefly: Inhibition of human BTK using fluorescein-labeled polyGAT peptide as substrate incubated for 30 mins by FRET assay.
Data set [7] in a line: Dissociation constant, pKa of the compound. It counts as physicochemical.
Data set [8] is described as follows: Kinetic aqueous solubility of the compound in pH 3. It counts as physicochemical. Conditions: read-out: Kinetic_solubility.
Data set [9] is described as follows: Kinetic solubility of the compound at pH 7.5 by shake flask method. It counts as physicochemical. Conditions: buffer, read-out: Kinetic_solubility.
Data set [10] is described as follows: Half life in Beagle dog at 5 mg/kg, po. It is filed as ADME, organism-based, Canis lupus familiaris. The conditions noted are these: in vivo.
Data set [11] can be described thus: Half life in Sprague-Dawley rat at 5 mg/kg, po. Conditions: in vivo. It is filed as ADME, organism-based.
Data set [12] can be described thus: Clearance in Sprague-Dawley rat at 1 mg/kg, iv. It counts as ADME, organism-based. Conditions: in vivo.
Data set [13] is described as follows: Clearance in Beagle dog at 1 mg/kg, iv. It is filed as ADME, organism-based, Canis lupus familiaris. The conditions noted are these: in vivo.
Data set [14] is described as follows: Clearance in Sprague-Dawley rat assessed as hepatic blood flow at 1 mg/kg, iv. It counts as ADME, organism-based, Liver. Conditions: in vivo.
A short description of data set [15]: Clearance in Beagle dog assessed as hepatic blood flow at 1 mg/kg, iv. It is filed as ADME, organism-based, Canis lupus familiaris, Liver. Conditions: in vivo.
A short description of data set [16]: Volume of distribution at steady state in Sprague-Dawley rat at 1 mg/kg, iv. It counts as ADME, organism-based. Conditions: in vivo, read-out: Vdss.
A short description of data set [17]: Volume of distribution at steady state in Beagle dog at 1 mg/kg, iv. Conditions: in vivo, read-out: Vdss. It counts as ADME, organism-based, Canis lupus familiaris.
Data set [18] is described as follows: AUC in Sprague-Dawley rat at 5 mg/kg, po. Details: dose 5 mg/kg. The conditions noted are these: in vivo. It is filed as ADME, organism-based.
Data set [19] is described as follows: AUC in Beagle dog at 5 mg/kg, po. It is filed as ADME, organism-based, Canis lupus familiaris. Also noted: dose 5 mg/kg. The conditions noted are these: in vivo.
A short description of data set [20]: Cmax in Sprague-Dawley rat at 5 mg/kg, po. It counts as ADME, organism-based. Also noted: route oral, dose 5 mg/kg. Conditions: in vivo.
Data set [21] in a line: Cmax in Beagle dog at 5 mg/kg, po. It counts as ADME, organism-based, Canis lupus familiaris. Conditions: in vivo. Details: route oral, dose 5 mg/kg.
Data set [22] in a line: Oral bioavailability in Sprague-Dawley rat at 5 mg/kg. It counts as ADME, organism-based. Conditions: in vivo.
The nature of data set [23]: Oral bioavailability in Beagle dog at 5 mg/kg. It counts as ADME, organism-based, Canis lupus familiaris. Conditions: in vivo.
Data set [24] is described as follows: Solubility of the compound in simulated gastric fluid at pH 1.6. It counts as physicochemical.
The nature of data set [25]: Solubility of the compound in FaSIF at pH 6.5. It is filed as physicochemical.
A short description of data set [26]: Solubility of the compound in FeSIF at pH 5.9. It counts as physicochemical.
Data set [27] addresses T1, Tyrosine-protein kinase BTK. The data set is described as follows: Inhibition of BTK phosphorylation in human whole blood assessed as reduction in BTK phosphorylation incubated for 30 mins. It counts as tissue-based.

In brackets after ≈: the same amount, converted by molar mass.

Chain of Cytochrome P450 2C9 (P11712 whole entry): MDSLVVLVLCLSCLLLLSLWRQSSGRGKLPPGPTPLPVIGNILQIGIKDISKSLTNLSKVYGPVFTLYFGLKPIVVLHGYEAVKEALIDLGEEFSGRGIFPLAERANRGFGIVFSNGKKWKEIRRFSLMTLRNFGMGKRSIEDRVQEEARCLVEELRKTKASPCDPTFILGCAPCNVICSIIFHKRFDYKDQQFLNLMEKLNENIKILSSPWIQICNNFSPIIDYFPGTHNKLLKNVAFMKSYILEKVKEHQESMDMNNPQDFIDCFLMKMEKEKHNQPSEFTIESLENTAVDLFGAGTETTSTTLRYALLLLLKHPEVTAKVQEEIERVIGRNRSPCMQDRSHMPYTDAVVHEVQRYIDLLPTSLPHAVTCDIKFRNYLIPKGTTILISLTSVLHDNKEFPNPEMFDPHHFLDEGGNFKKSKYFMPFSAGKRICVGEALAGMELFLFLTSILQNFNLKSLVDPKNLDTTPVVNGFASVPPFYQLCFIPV
Chain of Cytochrome P450 3A4 (P08684 whole entry): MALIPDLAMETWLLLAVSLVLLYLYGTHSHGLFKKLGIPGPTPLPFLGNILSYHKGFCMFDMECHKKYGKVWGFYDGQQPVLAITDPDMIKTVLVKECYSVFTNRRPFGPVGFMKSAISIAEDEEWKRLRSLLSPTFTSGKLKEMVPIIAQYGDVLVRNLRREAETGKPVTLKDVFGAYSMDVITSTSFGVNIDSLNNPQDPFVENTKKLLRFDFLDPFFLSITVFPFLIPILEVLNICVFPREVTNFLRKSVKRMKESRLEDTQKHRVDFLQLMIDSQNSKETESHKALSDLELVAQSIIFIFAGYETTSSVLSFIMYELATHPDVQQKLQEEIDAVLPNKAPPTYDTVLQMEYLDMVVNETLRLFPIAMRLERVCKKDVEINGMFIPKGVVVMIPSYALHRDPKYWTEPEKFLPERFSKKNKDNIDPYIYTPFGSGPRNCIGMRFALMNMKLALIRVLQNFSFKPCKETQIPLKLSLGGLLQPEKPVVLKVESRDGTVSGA
T1 sequence (Q06187 whole entry): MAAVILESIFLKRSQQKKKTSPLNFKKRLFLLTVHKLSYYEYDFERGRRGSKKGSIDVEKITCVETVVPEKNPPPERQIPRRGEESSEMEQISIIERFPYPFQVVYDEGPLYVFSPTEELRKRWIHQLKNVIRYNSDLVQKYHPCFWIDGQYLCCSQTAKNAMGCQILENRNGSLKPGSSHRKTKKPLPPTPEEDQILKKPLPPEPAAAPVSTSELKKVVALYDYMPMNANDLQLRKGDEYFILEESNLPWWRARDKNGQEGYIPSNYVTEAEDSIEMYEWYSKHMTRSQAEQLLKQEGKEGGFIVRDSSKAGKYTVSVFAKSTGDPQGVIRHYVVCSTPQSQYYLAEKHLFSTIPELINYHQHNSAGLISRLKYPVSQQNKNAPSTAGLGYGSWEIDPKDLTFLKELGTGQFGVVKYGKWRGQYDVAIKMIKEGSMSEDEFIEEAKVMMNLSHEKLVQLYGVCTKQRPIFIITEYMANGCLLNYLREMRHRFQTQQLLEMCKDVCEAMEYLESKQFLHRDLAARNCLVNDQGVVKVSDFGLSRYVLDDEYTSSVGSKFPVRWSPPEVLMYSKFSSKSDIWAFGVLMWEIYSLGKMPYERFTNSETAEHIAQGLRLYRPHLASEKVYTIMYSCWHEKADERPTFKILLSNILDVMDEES

On to `Cn1cc(Nc2nccc(-c3ccc4c(c3)CCCC[C@H]4NC(=O)c3nc(C(C)(C)C)no3)n2)cn1`, for which the solubility kinetic is less than 20 µg/mL in data set [1] and greater than 50 µg/mL in [3]. The fraction unbound at 2 µM in [2] worked out at 0.008; in data set [5], 0.009. In data set [4], the logD is 2.8. The values for the IC50 at Cytochrome P450 3A4 and against Cytochrome P450 2C9 were 2600 nM and 400 nM, respectively.
Consider `Cn1cc(Nc2nccc(-c3ccc4c(c3)CNCC[C@H]4NC(=O)c3cn(C(C)(C)C)nn3)n2)cn1`, for which the solubility kinetic in [1] and in [3] was greater than 50 µg/mL each time. For the same molecule, the fraction unbound at 2 µM in [2] came to 0.18. In addition, the logD in [4] was 2.9.
`Cn1cc(Nc2nccc(-c3ccc4c(c3)CCCC[C@H]4NC(=O)c3nnc(C(C)(C)C)o3)n2)cn1`: the solubility kinetic in data set [1] was less than 20 µg/mL; in data set [3], greater than 50 µg/mL. For the same molecule, the fraction unbound at 2 µM turned out to be 0.041 in data set [2] and 0.008 in [5]. This molecule displayed a logD in [4] of 2.3. In addition, the results for the IC50 against Cytochrome P450 3A4 and against Cytochrome P450 2C9 were greater than 10000 nM and 4000 nM, respectively.
`CN1CC[C@@H](NC(=O)c2cn(C(C)(C)C)nn2)c2ccc(-c3ccnc(Nc4cnn(C)c4)n3)cc2C1` displayed an IC50 in [6] of 0.8 nM. In addition, the solubility kinetic in data set [1] and in [3] was greater than 50 µg/mL each time. Also, the fraction unbound at 2 µM in data set [2] was determined as 0.19. Also, in [4], the logD was 1. This molecule came in with a pKa in data set [7] of 4.
`Cc1cc(-c2ccnc(Nc3cnn(C)c3)n2)ccc1CNC(=O)N1CC(OC(C)C)C1`: the solubility kinetic in [1] was less than 30 µg/mL; in [8] it was greater than 30 µg/mL; in data set [3], less than 30 µg/mL; in data set [9], greater than 30 µg/mL. For the same molecule, in data set [2], the fraction unbound at 2 µM came to 0.06. This molecule returned a logD in [4] of 2.7. Also, the half-life was 2.1 h in data set [10] and 1.2 h in data set [11].
Turning to `Cn1cc(Nc2nccc(-c3ccc4c(c3)CCNC[C@H]4NC(=O)c3cn(C(C)(C)C)nn3)n2)cn1`, the solubility kinetic in [1] and in [3] was greater than 50 µg/mL in each case. The unbound share (fraction unbound) at 2 µM in data set [2] came to 0.12. Besides, the logD in data set [4] was determined as 2.3.
Consider `CN1CCc2cc(-c3ccnc(Nc4cnn(C)c4)n3)ccc2[C@H](NC(=O)c2cn(C(C)(C)C)nn2)C1`, for which, in [2], the fraction unbound at 2 µM worked out at 0.07. Also, in data set [3], the solubility kinetic was greater than 50 µg/mL. In data set [4], this molecule had a logD of 2.9.
Consider `CC(C)OC1CN(C(=O)N[C@@H]2CCCCc3cc(-c4ccnc(Nc5cnn(C)c5)n4)ccc32)C1`, for which, in data set [2], the fraction unbound at 2 µM came out at 0.07. Besides, the solubility kinetic in [3] and in data set [9] was greater than 30 µg/mL each time. In data set [4], this molecule registered a logD of 3.6. In addition, the half-life in [10] was 2.4 h; in data set [11], 1.3 h. Also, the values for the clearance in [12] and in data set [13] were 6 mL/min/kg and 4 mL/min/kg, respectively. Besides, the QH in data set [14] was 11%; in [15], 31%. The Vd was determined as 0.6 L/kg in [16] and 1.6 L/kg in [17]. Further, the AUC turned out to be 6940 ng·h/mL in data set [18] and 14200 ng·h/mL in data set [19]. In addition, the Cmax in data set [20] came to 2460 ng/mL; in data set [21] it was 3710 ng/mL. The bioavailability in data set [22] was 69%; in data set [23], 92%. The values for the solubility in data set [24], in data set [25] and in data set [26] were greater than 15000 µg/mL, 80 µg/mL (≈ 168 µM) and 170 µg/mL (≈ 357 µM), respectively.
In the case of `CC(C)OC1CN(C(=O)NCc2ccc(-c3ccnc(Nc4cnn(C)c4)n3)cc2C(F)(F)F)C1`, the solubility kinetic in [1] and in data set [8] was less than 10 µg/mL in each case.
As for `Cc1c(-c2c(F)cc(C(N)=O)c3[nH]c4c(c23)CC[C@H](C(C)(C)O)C4)cccc1-n1c(=O)c2cccc(F)c2n(C)c1=O` [BMS-986142], the IC50 in data set [6] stood at 1 nM; in data set [27], 110 nM.
`C=CC(=O)Nc1cccc(Oc2nc(Nc3ccc(N4CCN(C)CC4)cc3)nc3ccoc23)c1` [POSELTINIB] displayed an IC50 in data set [6] of 1 nM.
For `Cc1c(NC(=O)c2cc3c(s2)CCCC3)cccc1-c1cn(C)c(=O)c(Nc2ccc(C3CN(C)CC(=O)N3C)cc2)n1` (stereo unspecified), the results for the IC50 in data set [6] and in data set [27] were 1 nM and 150 nM, respectively.
In the case of `Cc1c(CNC(=O)N2CC(OC(C)C)C2)ccc(-c2ccnc(Nc3cnn(C)c3)n2)c1F`, the solubility kinetic in data set [1] and in data set [8] was greater than 10 µg/mL throughout.
With `COCCN1CC[C@@H](NC(=O)c2cn(C(C)(C)C)nn2)c2ccc(-c3ccnc(Nc4cnn(C)c4)n3)cc2C1`, the solubility kinetic in data set [1] and in data set [3] was greater than 50 µg/mL each time. Besides, the unbound share (fraction unbound) at 2 µM in data set [2] is 0.1. The molecule also registered a logD in data set [4] of 2.9. In addition, the pKa in data set [7] was determined as 3.1.
`CC(C)OC1CN(C(=O)NCc2ccc(-c3ccnc(Nc4cnn(C)c4)n3)cc2Cl)C1`: the solubility kinetic in data set [1] and in [8] was less than 30 µg/mL each time.
Turning to `CC(C)OC1CN(C(=O)NC2CCCc3cc(-c4ccnc(Nc5cnn(C)c5)n4)ccc32)C1` (stereo unspecified), the solubility kinetic in data set [1] and in [8] was greater than 30 µg/mL in each case.
On to `Cc1cc(-c2ccnc(Nc3cnn(C)c3)n2)c(F)cc1CNC(=O)N1CC(OC(C)C)C1`, for which, in data set [6], the IC50 is greater than 10000 nM.
In the case of `Cn1cc(Nc2nccc(-c3ccc4c(c3)CCCC[C@H]4NC(=O)c3cn(C(C)(C)C)nn3)n2)cn1`, the solubility kinetic in [1] was less than 20 µg/mL; in data set [3], greater than 50 µg/mL. Also, the fraction unbound at 2 µM is 0.011 in data set [2] and 0.002 in [5]. In [4], this molecule returned a logD of 3.5. In addition, the IC50 was 6400 nM against Cytochrome P450 3A4 and 2000 nM at Cytochrome P450 2C9.

As usually defined, the fraction unbound is the share of the substance not bound to proteins or other matrix. The term logD denotes the decadic logarithm of the distribution of all forms, ionised or not, between an organic phase and buffer at a given pH. The term IC50 denotes the concentration at which inhibition is half-maximal. A word on the pKa: it is the negative logarithm of the acid dissociation constant. Usually half-life stands for the time needed for the level to fall by half in the phase considered. Low values mean rapid decline, high ones slow decline. In general, clearance refers to a measure of how efficiently the substance is removed, as volume per time. Higher therefore signals efficient removal. By AUC is commonly meant the area under the concentration-time curve, a measure of exposure. Low readings indicate low exposure, high ones high exposure. Usually Cmax stands for the peak of the concentration-time curve. As a reminder, the bioavailability is dose-corrected exposure relative to a reference, in per cent. For orientation: solubility means the dissolved amount per volume that the medium holds.
